Test results: patent US20240269113A1, “3-(2-(DIMETHYLAMINO)ETHYL)-1H-INDOL-4-yl DERIVATIVES” (priority 2023, published 2024)

Format: in vitro ADME
Procedure: The elimination rate constant and half-life (t1/2) were determined using Ln(MS response) vs time plots. […] The human plasma stability data are included in table A.

**Q.** For `CC(=O)N(C)CCOC(=O)Oc1cccc2[nH]cc(CCN(C)C)c12` [Compound 87, 3-(2-(dimethylamino)ethyl)-1H-indol-4-yl (2-(N-methylacetamido)ethyl) carbonate], which “Human Plasma Maximum % Psilocin” value is on record?
**A.** 91%

**Q.** With `CN(C)CCc1c[nH]c2cccc(OC(=O)c3cccnc3)c12` [Compound 91, 3-(2-(dimethylamino)ethyl)-1H-indol-4-yl nicotinate] as the molecule, how does the “Human Plasma Maximum % Psilocin” value read?
**A.** 100%

**Q.** For `CN(C)CCc1c[nH]c2cccc(OC(=O)CCCc3ccccc3)c12` [Compound 96, 3-(2-(dimethylamino)ethyl)-1H-indol-4-yl 4-phenylbutanoate], which “Human Plasma Maximum % Psilocin” value is on record?
**A.** 75%

**Q.** Which “Human Plasma Maximum % Psilocin” value does the source give for `CC(=O)Oc1ccccc1C(=O)Oc1cccc2[nH]cc(CCN(C)C)c12` [Compound 99, 3-(2-(dimethylamino)ethyl)-1H-indol4-yl 2-acetoxybenzoate] here?
**A.** 100%

**Q.** For `CN(C)CCc1c[nH]c2cccc(OC(=O)Cc3ccccc3)c12` [Compound 176, 3-(2-(dimethylamino)ethyl)-1H-indol-4-yl 2-phenylacetate], which “Human Plasma Maximum % Psilocin” value is on record?
**A.** 100%

Remark: another data set of the same source
Procedure: Psilocin was also run as an additional control to monitor psilocin formation in a semi-quantitative manner.
Samples were analysed by UHPLC-MS/MS—Waters™ Acquity UPLC system, Waters™ Xevo TQ-XS on a Waters™ Acquity UPLC® HSS T3 column (1.8 μm, 2.1 mm×30 mm), mobile phases were water+0.1% formic acid and methanol+0.1% formic acid.
In addition, the appearance of psilocin from test compounds was monitored and assessed (as a percentage) against control psilocin peaks (at Time 0) to provide a semi-quantitative measure of psilocin release.

**Q.** For `CC(=O)Oc1ccccc1C(=O)Oc1cccc2[nH]cc(CCN(C)C)c12` [Compound 99, 3-(2-(dimethylamino)ethyl)-1H-indol4-yl 2-acetoxybenzoate], which “Human Hepatocytes Maximum % Psilocin” value is on record?
**A.** 100%
